Results on 7 molecules are retold here after patent US20250154138A1, “Small Molecule IL-17A Modulators” (BeiGene, Ltd., priority 2022, published 2025).

For test [1], the target named is human IL-17A / human IL-17RA (Homo sapiens (Human), UniProt Q16552). The experiment in a line: Human IL-17A biochemical assay (HTRF, blocking of IL-17A binding to IL-17RA). The note with it: 0.4 nM IL-17A, 0.3 nM IL-17RA, max compound concentration 10 uM. A digest of the protocol:
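Compounds (10-point, 2.7-fold dilution from 10 uM) preincubated 3 h at RT with 0.4 nM human IL-17A, followed by 1 h with 0.3 nM IL-17RA and 1 h with Tb-cryptate/XL665 antibodies; buffer 20 mM HEPES pH 7.5, 0.1% BSA. Inhibition derived from HTRF fluorescence ratio; IC50 by four-parameter logistic fitting.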

Test [2] relates to IL-17-induced GROα secretion from HT-29 cells. The experiment in a line: GROα release assay in human colorectal adenocarcinoma epithelial cell (HT-29, ELISA). Type of test: cell-based. As to conditions: Homo sapiens, HT-29, 48 h, 10 ng/mL IL-17A, highest concentration 10 μM, read-out: Cellular assay HT29 cell/CXCL1 IC50. A digest of the protocol:
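IC50 values come from four-parameter fits of GROα levels, quantified by ELISA (450 nm, standard curve) in supernatants. Compounds, 4-fold serially diluted from 10 μM, were mixed 15 min with IL-17A (10 ng/mL final) before 48 h incubation with HT-29 cells at 37°C.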

Sequence of human IL-17A / human IL-17RA (Q16552 24-155): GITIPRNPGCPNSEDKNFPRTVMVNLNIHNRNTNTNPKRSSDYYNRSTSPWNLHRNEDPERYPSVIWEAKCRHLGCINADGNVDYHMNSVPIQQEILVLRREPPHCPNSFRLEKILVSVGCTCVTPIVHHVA

`Cc1nonc1C(=O)N[C@H](C(=O)Nc1ccc2c(c1)CC(C(=O)Nc1cccc(F)c1)(N1CC3(CC3)CNC1=O)C2)C1CCC(F)(F)CC1` (stereo partly drawn) [Example 203, N-((1S)-1-(4,4-difluorocyclohexyl)-2-((2-((3-fluorophenyl)carbamoyl)-2-(6-oxo-5,7-diazaspiro[2.5]octan-5-yl)-2,3-dihydro-1H-inden-5-yl)amino)-2-oxoethyl)-4-methyl-1,2,5-oxadiazole-3-carboxamide]: the IC50 in test [1] was 63.9 nM; in test [2] it was 135 nM.
Taken in the same sequence, the figures for `CNC(=O)C1(N2CC(C(C)C)NC2=O)Cc2cc3nc([C@@H](NC(=O)c4nonc4C)C4CCCCC4)[nH]c3cc2C1` (stereo partly drawn) [Example 29, N-((1S)-cyclohexyl(6-(4-isopropyl-2-oxoimidazolidin-1-yl)-6-(methylcarbamoyl)-1,5,6,7-tetrahydroindeno[5,6-d]imidazol-2-yl)methyl)-4-methyl-1,2,5-oxadiazole-3-carboxamide] were 160 nM and 146 nM.
The matching figures for `Cc1nonc1C(=O)N[C@H](C(=O)Nc1ccc2c(c1)CC(C(=O)Nc1ccccc1C(C)C)(N1C[C@@H](C(C)C)NC1=O)C2)C(C1CC1)C1CC1` (stereo partly drawn) [Example 288, N-((2S)-1,1-dicyclopropyl-3-((2-((R)-4-isopropyl-2-oxoimidazolidin-1-yl)-2-((2-isopropylphenyl)carbamoyl)-2,3-dihydro-1H-inden-5-yl)amino)-3-oxopropan-2-yl)-4-methyl-1,2,5-oxadiazole-3-carboxamide]: 110 nM and 408 nM.
Taken in the same sequence, the figures for `Cc1nocc1C(=O)N[C@H](C(=O)Nc1ccc2c(c1)CC(N1C[C@@H](C(F)(F)F)NC1=O)C2)C(C1CC1)C1CC1` (stereo partly drawn) [Example 218, N-((2S)-1,1-dicyclopropyl-3-oxo-3-((2-((S)-2-oxo-4-(trifluoromethyl)imidazolidin-1-yl)-2,3-dihydro-1H-inden-5-yl)amino)propan-2-yl)-3-methylisoxazole-4-carboxamide] were 141 nM and 385 nM.
In the case of `CNC(=O)C1(N2CC(C)(C(F)(F)F)CNC2=O)Cc2ccc(NC(=O)[C@@H](NC(=O)c3ccnn3C)C3CCCCC3)cc2C1` (stereo partly drawn) [Example 179, N-((1S)-1-cyclohexyl-2-((2-(5-methyl-2-oxo-5-(trifluoromethyl)tetrahydropyrimidin-1(2H)-yl)-2-(methylcarbamoyl)-2,3-dihydro-1H-inden-5-yl)amino)-2-oxoethyl)-1-methyl-1H-pyrazole-5-carboxamide], the IC50 in test [1] is 10.9 nM; in test [2], 51.6 nM.
In the case of `CNC(=O)C1(N2C[C@@H](C(C)C)NC2=O)Cc2ccc(NC(=O)[C@@H](NC(=O)c3ccnn3C)C(C3CC3)C3CC3)cc2C1` (stereo partly drawn) [Example 90, N-((2S)-1,1-dicyclopropyl-3-((2-((R)-4-isopropyl-2-oxoimidazolidin-1-yl)-2-(methylcarbamoyl)-2,3-dihydro-1H-inden-5-yl)amino)-3-oxopropan-2-yl)-1-methyl-1H-pyrazole-5-carboxamide], the IC50 in test [1] was 37 nM; in test [2] it was 48.6 nM.
As for `CC[C@H]1CN(C2(C(=O)NC)Cc3ccc(NC(=O)[C@@H](NC(=O)c4ccnn4C)C4CCCCC4)cc3C2)C(=O)N1` (stereo partly drawn) [Example 18, N-((1S)-1-cyclohexyl-2-((2-((S)-4-ethyl-2-oxoimidazolidin-1-yl)-2-(methylcarbamoyl)-2,3-dihydro-1H-inden-5-yl)amino)-2-oxoethyl)-1-methyl-1H-pyrazole-5-carboxamide], the IC50 in test [1] was found to be 1000 nM; in test [2], 2550 nM.
